Earlier results on three compounds are cited in patent US20230295183A1, “HOT MELT EXTRUDED SOLID DISPERSIONS CONTAINING A BCL2 INHIBITOR” (Newave Pharmaceutical Inc., priority 2020, published 2023).

The target of one data set is Mcl-1 (Homo sapiens, UniProt Q07820).
The next data set has as its system CLL. The following applies: read-out: average EC50, apoptosis in CLL.
The subject of another data set is RS4;11 xenografts. The following applies: single dose of 100 mg/kg.
A further data set deals with T1, Bcl-w (Homo sapiens, UniProt Q92843).
T1 sequence (Q92843 1-193): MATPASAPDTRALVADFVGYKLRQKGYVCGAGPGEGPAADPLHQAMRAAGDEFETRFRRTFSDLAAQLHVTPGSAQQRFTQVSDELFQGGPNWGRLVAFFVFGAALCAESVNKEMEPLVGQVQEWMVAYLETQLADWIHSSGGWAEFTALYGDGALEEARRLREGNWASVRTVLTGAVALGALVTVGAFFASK

Another data set concerns SCLC H146 cell line. Particulars: read-out: IC50 against SCLC H146 cell line.
A further data set deals with H345 xenograft. The following applies: 100 mg/kg/day, H345 xenograft model.
In data set [1] the test system is xenograft models of small-cell lung cancer and acute lymphoblastic leukemia. The following applies: oral administration, alone.
For another data set, the system named is circulating platelets. Particulars: clinical trial; dose-limiting thrombocytopenia.
For data set [2] the following is noted: in vivo.
In another data set the test system is established tumors. Particulars: mouse, in vivo.

Sequence of Mcl-1 (Q07820 whole entry): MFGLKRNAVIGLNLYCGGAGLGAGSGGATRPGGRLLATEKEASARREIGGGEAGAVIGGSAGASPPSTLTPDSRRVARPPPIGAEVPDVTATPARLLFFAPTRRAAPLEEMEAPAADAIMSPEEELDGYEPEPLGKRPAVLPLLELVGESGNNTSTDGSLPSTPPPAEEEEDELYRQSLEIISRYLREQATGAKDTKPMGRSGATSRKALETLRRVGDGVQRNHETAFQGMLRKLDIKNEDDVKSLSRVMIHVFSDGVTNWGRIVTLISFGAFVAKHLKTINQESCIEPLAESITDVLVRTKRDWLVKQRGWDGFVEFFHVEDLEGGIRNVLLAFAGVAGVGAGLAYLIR

In the case of `CC1(C)CCC(CN2CCN(c3ccc(C(=O)NS(=O)(=O)c4ccc(NCC5CCOCC5)c([N+](=O)[O-])c4)c(Oc4cnc5[nH]ccc5c4)c3)CC2)=C(c2ccc(Cl)cc2)C1` [ABT-199], at Mcl-1, the “activity to Mcl-1” value is listed as “no activity”. Besides, the EC50 in the data set on RS4;11 cells was 8 nM; with CLL, 3 nM. The “maximal tumor growth inhibition” value in the data set with RS4;11 xenografts is given as 95%. Further, in the data set on RS4;11 xenografts, the tumor growth delay is 152%.

With `CC1(C)CCC(c2ccc(Cl)cc2)=C(CN2CCN(c3ccc(C(=O)NS(=O)(=O)c4ccc(N[C@H](CCN5CCOCC5)CSc5ccccc5)c(S(=O)(=O)C(F)(F)F)c4)cc3)CC2)C1` [ABT-263], the Ki on Bcl-w is not above 1 nM. For the same compound, the half-inhibitory concentration (IC50) in the data set on SCLC H146 cell line was 110 nM. In addition, in the data set on H345 xenograft, the TGI is reported as 80% and the “treated tumors indicating at least a 50% reduction in tumor volume” value was 20%. The “antitumor effect in xenograft models” value in data set [1] is on record as “complete tumor regressions”. The “effect on number of circulating platelets” value with circulating platelets was “rapid, concentration-dependent decrease in the number of circulating platelets”. In data set [2], the oral bioavailability entry is “orally bioavailable”.

Take `CN(C)CC[C@H](CSc1ccccc1)Nc1ccc(S(=O)(=O)NC(=O)c2ccc(N3CCN(Cc4ccccc4-c4ccc(Cl)cc4)CC3)cc2)cc1[N+](=O)[O-]` [ABT-737]: the aqueous solubility result is given as “low aqueous solubility”. Moreover, the oral bioavailability entry in data set [2] was “not orally bioavailable”. Also, the “antitumor effect in animal models” value with established tumors is recorded as “causes regression of established tumors”.

As a reminder, the EC50 is the concentration at which the effect is half-maximal. By Ki is commonly meant a dissociation constant, usually derived from enzyme kinetics or from competition with a known ligand. In general, IC50 refers to the concentration that gives 50% inhibition. In general, TGI refers to how far tumour growth fell short of that in controls.
